# How the values were obtained:
# Mus musculus [1] = test: In vivo tumor-promoting activity in DMBA-treated ICR mouse assessed as increase in number of papillomas at 1.7 nmol administered twice per week measured at 13 to 20 weeks by two-stage carcinogenesis assay; type: ADME, organism-based
# Mus musculus [2] = test: In vivo tumor-promoting activity in DMBA-treated ICR mouse assessed as increase in number of papillomas at 3.4 nmol administered twice per week measured at 11 to 20 weeks by two-stage carcinogenesis assay; type: ADME, organism-based
# Mus musculus [3] = test: In vivo tumor-promoting activity in DMBA-treated ICR mouse assessed as tumor bearing mouse at 1.7 nmol administered twice per week measured after 20 weeks by two-stage carcinogenesis assay relative to control; type: ADME, organism-based; conditions: 3360 h
# Mus musculus [4] = test: In vivo tumor-promoting activity in DMBA-treated ICR mouse assessed as tumor bearing mouse at 3.4 nmol administered twice per week measured after 20 weeks by two-stage carcinogenesis assay relative to control; type: ADME, organism-based; conditions: 3360 h
# [5] = Cytotoxicity against human Raji cells assessed as cell viability at 10^-7 M relative to control; type: cell-based; conditions: read-out: Activity
# [6] = Cytotoxicity against human Raji cells assessed as cell viability at 10^-6 M relative to control; type: cell-based; conditions: read-out: Activity
# [7] = Cytotoxicity against human Raji cells assessed as cell viability at 10^-8 M relative to control; type: cell-based; conditions: read-out: Activity
# Raji [8] = test: Tumor-promoting activity against human Raji cells expressing EBV-EA at 10^-6 M after 48 hrs by indirect immunofluorescence assay relative to control; type: ADME, cell-based; conditions: 1 µM
# Raji [9] = test: Tumor-promoting activity against human Raji cells expressing EBV-EA at 10^-8 M after 48 hrs by indirect immunofluorescence assay relative to control; type: ADME, cell-based; conditions: 0.01 µM
# Raji [10] = test: Tumor-promoting activity against human Raji cells expressing EBV-EA at 10^-7 M after 48 hrs by indirect immunofluorescence assay relative to control; type: ADME, cell-based; conditions: 0.1 µM
# [11] = target: Protein kinase C theta type (Homo sapiens, UniProt Q04759); test: Displacement of [3H]PDBu from PKCtheta C1B domain (unknown origin)
# [12] = target: Protein kinase C eta type (Homo sapiens, UniProt P24723); test: Displacement of [3H]PDBu from PKCeta C1B domain (unknown origin)
# [13] = target: Protein kinase C epsilon type (Homo sapiens, UniProt Q02156); test: Displacement of [3H]PDBu from PKCepsilon C1B domain (unknown origin)
# [14] = target: Protein kinase C delta type (Homo sapiens, UniProt Q05655); test: Displacement of [3H]PDBu from PKCdelta C1B domain (unknown origin)
# [15] = target: Protein kinase C gamma type (Homo sapiens, UniProt P05129); test: Displacement of [3H]PDBu from PKCgamma C1A domain (unknown origin)
# [16] = target: Protein kinase C beta type (Homo sapiens, UniProt P05771); test: Displacement of [3H]PDBu from PKCbeta C1A domain (unknown origin)
# [17] = target: Protein kinase C alpha type (Homo sapiens, UniProt P17252); test: Displacement of [3H]PDBu from PKCalpha C1A domain (unknown origin)
# DU-145 = test: Growth inhibition of human DU145 cells after 48 hrs by SRB assay; type: functional; conditions: DU-145, 48 h
# PC-3 = test: Growth inhibition of human PC3 cells after 48 hrs by SRB assay; type: functional; conditions: PC-3, 48 h
# MKN-74 = test: Growth inhibition of human MKN74 cells after 48 hrs by SRB assay; type: functional; conditions: MKN-74, 48 h
# MKN-45 = test: Growth inhibition of human MKN45 cells after 48 hrs by SRB assay; type: functional; conditions: MKN-45, 48 h
# MKN-28 = test: Growth inhibition of human MKN28 cells after 48 hrs by SRB assay; type: functional; conditions: MKN-28, 48 h
# MKN-7 = test: Growth inhibition of human MKN7 cells after 48 hrs by SRB assay; type: functional; conditions: MKN-7, 48 h
# [18] = Growth inhibition of human MKN1 cells after 48 hrs by SRB assay; type: functional; conditions: MKN-1, 48 h
# St-4 = test: Growth inhibition of human St-4 cells after 48 hrs by SRB assay; type: functional; conditions: St-4, 48 h
# ACHN = test: Growth inhibition of human ACHN cells after 48 hrs by SRB assay; type: functional
# [19] = Growth inhibition of human RXF631L cells after 48 hrs by SRB assay; type: functional; conditions: RXF 631, 48 h
# SK-OV-3 = test: Growth inhibition of human SKOV3 cells after 48 hrs by SRB assay; type: functional; conditions: SK-OV-3, 48 h
# OVCAR-8 = test: Growth inhibition of human OVCAR8 cells after 48 hrs by SRB assay; type: functional; conditions: OVCAR-8, 48 h
# OVCAR-4 = test: Growth inhibition of human OVCAR4 cells after 48 hrs by SRB assay; type: functional; conditions: OVCAR-4, 48 h
# OVCAR-5 = test: Growth inhibition of human OVCAR5 cells after 48 hrs by SRB assay; type: functional; conditions: OVCAR-5, 48 h
# OVCAR-3 = test: Growth inhibition of human OVCAR3 cells after 48 hrs by SRB assay; type: functional; conditions: OVCAR-3, 48 h
# DMS-114 = test: Growth inhibition of human DMS114 cells after 48 hrs by SRB assay; type: functional; conditions: DMS-114, 48 h
# LOX IMVI = test: Growth inhibition of human LOXIMVI cells after 48 hrs by SRB assay; type: functional
# DMS-273 = test: Growth inhibition of human DMS273 cells after 48 hrs by SRB assay; type: functional; conditions: DMS-273, 48 h
# A549 = test: Growth inhibition of human A549 cells after 48 hrs by SRB assay; type: functional; conditions: A549, 48 h
# NCI-H522 = test: Growth inhibition of human NCI-H522 cells after 48 hrs by SRB assay; type: functional; conditions: NCI-H522, 48 h
# NCI-H460 = test: Growth inhibition of human NCI-H460 cells after 48 hrs by SRB assay; type: functional; conditions: NCI-H460, 48 h
# NCI-H226 = test: Growth inhibition of human NCI-H226 cells after 48 hrs by SRB assay; type: functional; conditions: NCI-H226, 48 h
# HCT-116 = test: Growth inhibition of human HCT116 cells after 48 hrs by SRB assay; type: functional; conditions: HCT-116, 48 h
# NCI-H23 = test: Growth inhibition of human NCI-H23 cells after 48 hrs by SRB assay; type: functional; conditions: NCI-H23, 48 h
# HCT-15 = test: Growth inhibition of human HCT15 cells after 48 hrs by SRB assay; type: functional; conditions: HCT-15, 48 h
# KM12 = test: Growth inhibition of human KM12 cells after 48 hrs by SRB assay; type: functional; conditions: KM12, 48 h
# HT-29 = test: Growth inhibition of human HT-29 cells after 48 hrs by SRB assay; type: functional; conditions: HT-29, 48 h
# [20] = Growth inhibition of human HCC2998 cells after 48 hrs by SRB assay; type: functional; conditions: HCC 2998, 48 h
# SNB-78 = test: Growth inhibition of human SNB-78 cells after 48 hrs by SRB assay; type: functional; conditions: SNB-78, 48 h
# SNB-75 = test: Growth inhibition of human SNB75 cells after 48 hrs by SRB assay; type: functional; conditions: SNB-75, 48 h
# SF-539 = test: Growth inhibition of human SF539 cells after 48 hrs by SRB assay; type: functional; conditions: SF-539, 48 h
# SF-295 = test: Growth inhibition of human SF295 cells after 48 hrs by SRB assay; type: functional; conditions: SF-295, 48 h
# SF-268 = test: Growth inhibition of human SF268 cells after 48 hrs by SRB assay; type: functional; conditions: SF-268, 48 h
# U-251 = test: Growth inhibition of human U251 cells after 48 hrs by SRB assay; type: functional; conditions: U-251, 48 h
# MCF7 = test: Growth inhibition of human MCF7 cells after 48 hrs by SRB assay; type: functional; conditions: MCF7, 48 h
# MDA-MB-231 = test: Growth inhibition of human MDA-MB-231 cells after 48 hrs by SRB assay; type: functional; conditions: MDA-MB-231, 48 h
# [21] = Growth inhibition of human HBC5 cells after 48 hrs by SRB assay; type: functional; conditions: HBC5, 48 h
# [22] = Growth inhibition of human BSY1 cells after 48 hrs by SRB assay; type: functional; conditions: BSY-1, 48 h
# [23] = Growth inhibition of human HBC4 cells after 48 hrs by SRB assay; type: functional; conditions: HBC4, 48 h
# Sequence of Protein kinase C theta type (Q04759 whole entry, the tested form may be a part): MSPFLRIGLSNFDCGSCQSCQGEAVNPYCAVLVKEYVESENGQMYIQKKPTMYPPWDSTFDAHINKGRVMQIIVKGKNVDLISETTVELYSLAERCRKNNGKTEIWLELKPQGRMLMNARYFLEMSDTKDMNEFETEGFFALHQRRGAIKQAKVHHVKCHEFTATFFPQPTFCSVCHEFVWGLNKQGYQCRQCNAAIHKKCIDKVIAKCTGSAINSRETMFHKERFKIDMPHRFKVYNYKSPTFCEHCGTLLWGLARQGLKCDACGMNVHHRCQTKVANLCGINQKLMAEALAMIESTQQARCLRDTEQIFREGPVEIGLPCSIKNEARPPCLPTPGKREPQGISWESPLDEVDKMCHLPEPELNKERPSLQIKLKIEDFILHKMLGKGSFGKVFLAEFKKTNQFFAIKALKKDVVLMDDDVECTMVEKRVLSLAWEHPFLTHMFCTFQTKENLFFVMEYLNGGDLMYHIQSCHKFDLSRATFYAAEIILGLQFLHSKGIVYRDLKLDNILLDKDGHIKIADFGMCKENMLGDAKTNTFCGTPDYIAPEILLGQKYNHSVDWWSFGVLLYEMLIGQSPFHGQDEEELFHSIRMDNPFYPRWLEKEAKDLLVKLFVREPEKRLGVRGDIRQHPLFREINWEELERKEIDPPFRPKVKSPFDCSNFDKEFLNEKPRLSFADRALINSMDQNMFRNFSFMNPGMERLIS
# Sequence of Protein kinase C beta type (P05771 whole entry, the tested form may be a part): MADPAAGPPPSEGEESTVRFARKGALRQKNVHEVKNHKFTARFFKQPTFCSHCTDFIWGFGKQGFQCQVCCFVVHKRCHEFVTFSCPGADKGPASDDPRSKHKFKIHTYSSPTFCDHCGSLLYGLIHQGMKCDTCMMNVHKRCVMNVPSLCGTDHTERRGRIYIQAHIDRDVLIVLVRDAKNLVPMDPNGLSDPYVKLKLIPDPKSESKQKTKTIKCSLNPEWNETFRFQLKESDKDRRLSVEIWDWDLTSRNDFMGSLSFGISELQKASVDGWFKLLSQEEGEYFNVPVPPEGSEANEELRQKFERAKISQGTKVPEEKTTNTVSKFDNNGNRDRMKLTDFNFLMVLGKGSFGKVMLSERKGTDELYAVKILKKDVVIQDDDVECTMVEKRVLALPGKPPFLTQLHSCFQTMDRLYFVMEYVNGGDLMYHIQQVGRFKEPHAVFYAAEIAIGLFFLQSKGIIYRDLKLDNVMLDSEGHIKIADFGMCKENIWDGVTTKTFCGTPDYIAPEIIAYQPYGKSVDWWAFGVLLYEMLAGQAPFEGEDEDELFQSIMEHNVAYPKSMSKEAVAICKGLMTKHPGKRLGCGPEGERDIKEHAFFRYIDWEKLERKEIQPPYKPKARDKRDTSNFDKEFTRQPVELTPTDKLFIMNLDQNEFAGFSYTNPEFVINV
# Sequence of Protein kinase C delta type (Q05655 whole entry, the tested form may be a part): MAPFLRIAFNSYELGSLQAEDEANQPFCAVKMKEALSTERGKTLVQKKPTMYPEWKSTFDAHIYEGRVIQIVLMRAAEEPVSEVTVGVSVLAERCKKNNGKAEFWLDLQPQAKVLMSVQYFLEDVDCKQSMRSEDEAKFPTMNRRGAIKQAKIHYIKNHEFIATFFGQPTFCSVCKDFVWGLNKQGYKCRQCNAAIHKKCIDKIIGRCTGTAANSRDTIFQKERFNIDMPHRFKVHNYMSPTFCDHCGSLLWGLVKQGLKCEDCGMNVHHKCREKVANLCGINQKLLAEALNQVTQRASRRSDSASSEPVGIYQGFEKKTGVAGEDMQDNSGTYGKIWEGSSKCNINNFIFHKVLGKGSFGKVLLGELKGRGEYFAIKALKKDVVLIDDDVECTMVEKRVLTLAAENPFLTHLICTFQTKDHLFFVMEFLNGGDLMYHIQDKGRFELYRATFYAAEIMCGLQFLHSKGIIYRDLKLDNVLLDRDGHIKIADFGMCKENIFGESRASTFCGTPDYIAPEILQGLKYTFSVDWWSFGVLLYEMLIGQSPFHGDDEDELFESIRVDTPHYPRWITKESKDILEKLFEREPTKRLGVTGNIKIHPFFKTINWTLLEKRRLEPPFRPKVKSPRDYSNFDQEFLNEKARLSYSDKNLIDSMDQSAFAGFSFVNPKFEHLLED
# Sequence of Protein kinase C epsilon type (Q02156 whole entry, the tested form may be a part): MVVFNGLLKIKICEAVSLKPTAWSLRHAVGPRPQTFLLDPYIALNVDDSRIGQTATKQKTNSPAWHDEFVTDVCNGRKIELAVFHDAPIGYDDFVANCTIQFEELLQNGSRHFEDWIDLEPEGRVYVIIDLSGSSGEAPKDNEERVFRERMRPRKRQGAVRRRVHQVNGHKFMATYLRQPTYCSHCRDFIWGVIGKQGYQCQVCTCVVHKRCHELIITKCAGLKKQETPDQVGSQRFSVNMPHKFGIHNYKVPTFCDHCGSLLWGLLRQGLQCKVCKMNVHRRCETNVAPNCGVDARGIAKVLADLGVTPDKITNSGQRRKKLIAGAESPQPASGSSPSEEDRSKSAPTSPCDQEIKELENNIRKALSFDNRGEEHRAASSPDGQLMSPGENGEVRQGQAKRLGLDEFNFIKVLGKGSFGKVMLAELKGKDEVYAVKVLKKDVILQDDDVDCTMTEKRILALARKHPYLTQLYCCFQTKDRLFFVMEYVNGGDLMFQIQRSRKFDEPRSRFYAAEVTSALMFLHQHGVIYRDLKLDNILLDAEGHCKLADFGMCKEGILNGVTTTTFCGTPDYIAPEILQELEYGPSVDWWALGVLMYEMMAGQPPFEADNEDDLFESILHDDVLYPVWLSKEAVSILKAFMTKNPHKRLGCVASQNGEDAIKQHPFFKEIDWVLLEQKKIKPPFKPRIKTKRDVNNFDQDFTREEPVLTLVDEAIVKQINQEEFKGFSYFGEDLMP
# Sequence of Protein kinase C eta type (P24723 whole entry, the tested form may be a part): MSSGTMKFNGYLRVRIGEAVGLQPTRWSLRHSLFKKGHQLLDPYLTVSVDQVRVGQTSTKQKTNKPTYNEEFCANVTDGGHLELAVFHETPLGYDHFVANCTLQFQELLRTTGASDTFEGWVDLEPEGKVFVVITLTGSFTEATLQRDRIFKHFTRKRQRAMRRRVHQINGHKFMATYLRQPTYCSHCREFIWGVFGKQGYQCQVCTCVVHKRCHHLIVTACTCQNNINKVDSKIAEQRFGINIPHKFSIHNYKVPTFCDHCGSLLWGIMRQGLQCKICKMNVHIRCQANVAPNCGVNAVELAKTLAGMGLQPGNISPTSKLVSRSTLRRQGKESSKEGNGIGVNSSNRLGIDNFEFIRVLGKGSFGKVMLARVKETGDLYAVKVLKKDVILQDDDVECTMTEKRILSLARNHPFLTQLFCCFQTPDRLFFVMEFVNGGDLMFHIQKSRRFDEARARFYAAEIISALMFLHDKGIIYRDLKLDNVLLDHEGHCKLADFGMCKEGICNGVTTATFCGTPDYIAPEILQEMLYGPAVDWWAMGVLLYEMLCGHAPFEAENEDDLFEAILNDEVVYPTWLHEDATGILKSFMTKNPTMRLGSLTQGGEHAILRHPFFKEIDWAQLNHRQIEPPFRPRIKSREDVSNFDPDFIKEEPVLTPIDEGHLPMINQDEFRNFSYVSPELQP
compound,measurement,setting,value
CO[C@@H](CC[C@H](C)[C@H]1O[C@@]23C[C@H](OC(=O)C[C@H]([C@@H](C)O)OC(=O)C[C@](O)(O2)[C@H](C)CC3(C)C)[C@@H]1C)c1cccc(O)c1 [DEBROMOAPLYSIATOXIN],Activity,Mus musculus [1],Toxic
same,Activity,Mus musculus [2],Toxic
same,Activity,Mus musculus [3],80%
same,Activity,Mus musculus [4],90%
same,viability at 0.1 µM,[5],50%
same,viability at 1 µM,[6],50%
same,viability at 0.01 µM,[7],60%
same,Activity,Raji [8],24.4%
same,Activity,Raji [9],21.1%
same,Activity,Raji [10],22.9%
C[C@@H]1[C@@H]([C@@H](C)CCCc2cccc(O)c2)O[C@@]23C[C@@H]1OC(=O)C[C@H]([C@@H](C)O)OC(=O)C[C@](O)(O2)[C@H](C)CC3(C)C [DEMETHOXYDEBROMOAPLYSIATOXIN],Ki,[11],0.0002 µM
same,Ki,[12],0.00018 µM
same,Ki,[13],0.0013 µM
same,Ki,[14],0.00032 µM
same,Ki,[15],0.00069 µM
same,Ki,[16],0.0015 µM
same,Ki,[17],0.001 µM
same,GI50,DU-145,10.7 µM
same,GI50,PC-3,4.57 µM
same,GI50,MKN-74,6.92 µM
same,GI50,MKN-45,6.76 µM
same,GI50,MKN-28,6.76 µM
same,GI50,MKN-7,2.75 µM
same,GI50,[18],5.5 µM
same,GI50,St-4,0.0129 µM
same,GI50,ACHN,2.51 µM
same,GI50,[19],15.1 µM
same,GI50,SK-OV-3,7.24 µM
same,GI50,OVCAR-8,14.8 µM
same,GI50,OVCAR-4,7.24 µM
same,GI50,OVCAR-5,4.9 µM
same,GI50,OVCAR-3,8.13 µM
same,GI50,DMS-114,5.5 µM
same,GI50,LOX IMVI,1.62 µM
same,GI50,DMS-273,3.47 µM
same,GI50,A549,0.145 µM
same,GI50,NCI-H522,4.79 µM
same,GI50,NCI-H460,0.01 µM
same,GI50,NCI-H226,0.0525 µM
same,GI50,HCT-116,8.71 µM
same,GI50,NCI-H23,6.17 µM
same,GI50,HCT-15,9.77 µM
same,GI50,KM12,3.47 µM
same,GI50,HT-29,12.3 µM
same,GI50,[20],0.0692 µM
same,GI50,SNB-78,6.46 µM
same,GI50,SNB-75,10.2 µM
same,GI50,SF-539,11.5 µM
same,GI50,SF-295,2.95 µM
same,GI50,SF-268,13.2 µM
same,GI50,U-251,7.24 µM
same,GI50,MCF7,5.62 µM
same,GI50,MDA-MB-231,0.049 µM
same,GI50,[21],11.2 µM
same,GI50,[22],6.17 µM
same,GI50,[23],< 0.01 µM
same,Activity,Mus musculus [1],Toxic
same,Activity,Mus musculus [2],Toxic
same,Activity,Mus musculus [3],70%
same,Activity,Mus musculus [4],90%
same,viability at 0.1 µM,[5],50%
same,viability at 1 µM,[6],50%
same,viability at 0.01 µM,[7],60%
same,Activity,Raji [8],18.6%
same,Activity,Raji [9],14.3%
same,Activity,Raji [10],17.9%
